A word on the IC50: it is the midpoint of a concentration-inhibition curve. One may read the inhibition as the change of the read-out against control, counted positive when it falls.

From PubChem BioAssay AID624129 (Sanford-Burnham Center for Chemical Genomics, 2012) come the findings set out here.

Assay in all cases: potency against CXCR6 with APJ panel – cell-based, beta-arrestin, DiscoveRx, uHTS hits, dose response (AID 624129)
Experiment [1] deals with C-X-C chemokine receptor type 6 (Homo sapiens) (UniProt O00574). The conditions noted are these: CXCR6 beta-arrestin (DiscoveRx) antagonist cell assay; for inhibition: CXCR6, run 1, dose range 2, at 80 µM (top of the series).
Experiment [2] deals with C-C chemokine receptor type 6 (Homo sapiens) (UniProt P51684). The conditions noted are these: CXCR6 beta-arrestin (DiscoveRx) antagonist cell assay.
The target of experiment [3] is Beta-galactosidase (Escherichia coli) (UniProt Q8VNN2). The conditions noted are these: CXCR6 beta-arrestin (DiscoveRx) antagonist cell assay, b-galactosidase.
The target of experiment [4] is Apelin receptor (Homo sapiens) (UniProt P35414). The settings on record: CXCR6 beta-arrestin (DiscoveRx) antagonist cell assay, APJ.
Setting [5] is: CXCR6, dose range 1, mean IC50 across replicates.
Where [6] appears, read: CCR6, dose range 1, mean IC50 across replicates.
[7] abbreviates: dose range 1, mean IC50 across replicates.

Activity calls are given as the source filed them. How the calls were made is not given here.

Beta-galactosidase (Escherichia coli), sequence (Q8VNN2 whole entry, looked up): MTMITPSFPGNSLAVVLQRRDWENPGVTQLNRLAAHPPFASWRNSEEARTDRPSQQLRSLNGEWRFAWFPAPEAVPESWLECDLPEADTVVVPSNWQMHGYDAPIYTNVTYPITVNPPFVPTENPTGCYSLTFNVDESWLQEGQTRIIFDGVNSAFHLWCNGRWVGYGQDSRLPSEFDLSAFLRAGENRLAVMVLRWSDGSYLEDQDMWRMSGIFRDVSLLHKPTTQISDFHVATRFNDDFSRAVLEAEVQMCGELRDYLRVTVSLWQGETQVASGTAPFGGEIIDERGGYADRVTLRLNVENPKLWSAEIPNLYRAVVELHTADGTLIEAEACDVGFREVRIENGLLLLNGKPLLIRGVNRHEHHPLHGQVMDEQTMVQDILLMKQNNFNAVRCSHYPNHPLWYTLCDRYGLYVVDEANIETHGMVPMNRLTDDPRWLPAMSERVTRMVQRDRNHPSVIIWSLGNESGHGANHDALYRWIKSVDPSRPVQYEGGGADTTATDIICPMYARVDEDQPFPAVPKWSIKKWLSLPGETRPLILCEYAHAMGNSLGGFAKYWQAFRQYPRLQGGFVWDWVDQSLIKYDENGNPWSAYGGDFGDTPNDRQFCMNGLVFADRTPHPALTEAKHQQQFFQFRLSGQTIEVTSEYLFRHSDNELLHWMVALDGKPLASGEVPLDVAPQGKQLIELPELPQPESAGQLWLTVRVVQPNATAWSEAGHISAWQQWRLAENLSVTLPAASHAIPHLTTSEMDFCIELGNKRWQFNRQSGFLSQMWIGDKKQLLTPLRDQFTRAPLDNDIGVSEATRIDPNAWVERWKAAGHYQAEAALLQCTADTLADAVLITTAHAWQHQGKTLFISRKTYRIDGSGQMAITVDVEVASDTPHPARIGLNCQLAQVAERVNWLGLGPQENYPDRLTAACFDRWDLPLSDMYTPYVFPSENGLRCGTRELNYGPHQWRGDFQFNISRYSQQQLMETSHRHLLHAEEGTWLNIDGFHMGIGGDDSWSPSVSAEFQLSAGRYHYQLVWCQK
C-X-C chemokine receptor type 6 (Homo sapiens), sequence (O00574 whole entry, looked up): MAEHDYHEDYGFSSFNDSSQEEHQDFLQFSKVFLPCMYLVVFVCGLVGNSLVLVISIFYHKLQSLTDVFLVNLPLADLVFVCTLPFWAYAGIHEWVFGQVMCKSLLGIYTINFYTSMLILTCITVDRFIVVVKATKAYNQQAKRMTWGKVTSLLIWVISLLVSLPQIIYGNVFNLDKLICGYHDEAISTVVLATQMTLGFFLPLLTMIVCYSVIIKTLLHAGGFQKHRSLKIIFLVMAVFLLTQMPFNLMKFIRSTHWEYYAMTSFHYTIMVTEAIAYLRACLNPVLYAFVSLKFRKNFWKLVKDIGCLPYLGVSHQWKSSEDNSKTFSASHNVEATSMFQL

For `COc1ccccc1C(=O)NNC(=S)NC(=O)c1cccs1`, the IC50 result in experiment [1] (CXCR6, dose range 1) was “inactive”. Moreover, the IC50 in experiment [1] (setting [5]) is 15 µM; in experiment [1] (CXCR6, run 1, dose range 2) it was 9.07 µM; in experiment [1] (CXCR6, run 2, dose range 1), 22.8 µM; in experiment [1] (CXCR6, run 2, dose range 2), 10.6 µM; in experiment [2] (CCR6, dose range 1), 12.2 µM; in experiment [2] (setting [6]) it was 12.1 µM. For the same compound, the IC50 in experiment [2] (CCR6, run 2, dose range 1) was 11.9 µM; in experiment [3] (dose range 1) it was > 80 µM (inactive); in experiment [3] (setting [7]) it was over 80 µM; in experiment [4] (dose range 1), 9.86 µM; in experiment [4] (setting [7]) it was 31 µM; in experiment [4] (run 2, dose range 1), 13.8 µM. Besides, in experiment [4] (run 3, dose range 1), the IC50 worked out at 69.4 µM.

For the compound `Cc1ccc(OCCn2c(NC(=O)c3ccco3)nc3ccccc32)cc1`, the IC50 in experiment [1] (CXCR6, dose range 1) was 6.41 µM; in experiment [1] (setting [5]), 6.79 µM; in experiment [1] (CXCR6, run 2, dose range 1), 7.16 µM; in experiment [2] (CCR6, dose range 1), 4.28 µM; in experiment [2] (setting [6]), 3.98 µM; in experiment [2] (CCR6, run 2, dose range 1), 3.68 µM. In addition, the IC50 in experiment [3] (dose range 1) is 32.8 µM; in experiment [3] (setting [7]) it was 32.8 µM; in experiment [4] (dose range 1), 11.3 µM; in experiment [4] (setting [7]), 10.3 µM; in experiment [4] (run 2, dose range 1) it was 8.87 µM; in experiment [4] (run 3, dose range 1), 10.8 µM. The inhibition in experiment [1] turned out to be 146%.

For the compound `Cc1ccc(OCCN2C(=O)c3ccccc3C2=O)c([N+](=O)[O-])c1`, the IC50 is 6.4 µM in experiment [1] (CXCR6, dose range 1); 5.31 µM in experiment [1] (setting [5]); 5.94 µM in experiment [1] (CXCR6, run 1, dose range 2); 4.95 µM in experiment [1] (CXCR6, run 2, dose range 1); 3.96 µM in experiment [1] (CXCR6, run 2, dose range 2); 8.16 µM in experiment [2] (CCR6, dose range 1). Besides, the IC50 is 6.82 µM in experiment [2] (setting [6]); 5.48 µM in experiment [2] (CCR6, run 2, dose range 1); > 80 µM (inactive) in experiment [3] (dose range 1); over 80 µM in experiment [3] (setting [7]); 4.29 µM in experiment [4] (dose range 1); 5.81 µM in experiment [4] (setting [7]). Moreover, the IC50 in experiment [4] (run 2, dose range 1) worked out at 7.87 µM; in experiment [4] (run 3, dose range 1), 5.29 µM.

For `COc1ccc(C)c(-n2c(=O)n(Cc3ccccc3)c(=O)c3[nH]cnc32)c1`, the IC50 entry in experiment [1] (CXCR6, dose range 1) is “inactive”. Further, the IC50 in experiment [1] (setting [5]) was 12.3 µM; in experiment [1] (CXCR6, run 1, dose range 2), 10.9 µM; in experiment [1] (CXCR6, run 2, dose range 1) it was 14 µM; in experiment [1] (CXCR6, run 2, dose range 2), 7.56 µM; in experiment [2] (CCR6, dose range 1), 8.5 µM; in experiment [2] (setting [6]), 9.2 µM. In addition, the IC50 was 9.91 µM in experiment [2] (CCR6, run 2, dose range 1); 8.42 µM in experiment [3] (dose range 1); 8.42 µM in experiment [3] (setting [7]); 13.5 µM in experiment [4] (dose range 1); 13.1 µM in experiment [4] (setting [7]); 15.7 µM in experiment [4] (run 2, dose range 1). In addition, the IC50 in experiment [4] (run 3, dose range 1) came out at 9.95 µM.

Consider `O=C(Nc1nc2c(F)cc(F)cc2s1)c1ccccn1`, for which the IC50 in experiment [1] (CXCR6, dose range 1) is 1.4 µM; in experiment [1] (setting [5]) it was 1.11 µM; in experiment [1] (CXCR6, run 1, dose range 2), 0.803 µM; in experiment [1] (CXCR6, run 2, dose range 1), 1.23 µM; in experiment [1] (CXCR6, run 2, dose range 2) it was 1 µM; in experiment [2] (CCR6, dose range 1), 0.66 µM. Moreover, the IC50 in experiment [2] (setting [6]) was 1.03 µM; in experiment [2] (CCR6, run 2, dose range 1), 1.4 µM; in experiment [3] (dose range 1) it was > 80 µM (inactive); in experiment [3] (setting [7]), over 80 µM; in experiment [4] (dose range 1), 0.798 µM; in experiment [4] (setting [7]) it was 1.59 µM. Also, the IC50 in experiment [4] (run 2, dose range 1) is 2.38 µM; in experiment [4] (run 3, dose range 1) it was over 80 µM.

For the compound `CS(=O)(=O)c1sc(C#N)c2c1C(=O)CC(c1ccccc1)C2` (stereo unspecified), in experiment [1] (CXCR6, dose range 1), the IC50 result is “inactive”. Further, the IC50 is 45.5 µM in experiment [1] (setting [5]); 32.1 µM in experiment [1] (CXCR6, run 2, dose range 1); 27.4 µM in experiment [2] (CCR6, dose range 1); 37.9 µM in experiment [2] (setting [6]); 48.5 µM in experiment [2] (CCR6, run 2, dose range 1); > 80 µM (inactive) in experiment [3] (dose range 1). For the same compound, the IC50 is over 80 µM in experiment [3] (setting [7]); 68.7 µM in experiment [4] (dose range 1); 68.7 µM in experiment [4] (setting [7]); over 80 µM in experiment [4] (run 2, dose range 1); over 80 µM in experiment [4] (run 3, dose range 1). In experiment [1], the inhibition is 73.2%.

Consider `CNc1ccc2oc(C[C@H]3O[C@@]4(CC[C@H]3C)O[C@H]([C@H](C)C(=O)c3ccc[nH]3)[C@H](C)C[C@H]4C)nc2c1C(=O)O`, for which the IC50 was 5.85 µM in experiment [1] (CXCR6, dose range 1); 8.6 µM in experiment [1] (setting [5]); 6.42 µM in experiment [1] (CXCR6, run 1, dose range 2); 7.09 µM in experiment [1] (CXCR6, run 2, dose range 1); 15 µM in experiment [1] (CXCR6, run 2, dose range 2); 6.14 µM in experiment [2] (CCR6, dose range 1). Further, the IC50 in experiment [2] (setting [6]) is 6.15 µM; in experiment [2] (CCR6, run 2, dose range 1), 6.16 µM; in experiment [3] (dose range 1), > 80 µM (inactive); in experiment [3] (setting [7]), over 80 µM; in experiment [4] (dose range 1) it was 10.9 µM; in experiment [4] (setting [7]), 11.7 µM. Further, the IC50 was 12.4 µM in experiment [4] (run 2, dose range 1) and over 80 µM in experiment [4] (run 3, dose range 1).
